Earlier results in publication PMC6525986 (Theranostics, 2019).

Biological target: protein arginine methyltransferase 5 (PRMT5) (Homo sapiens, UniProt O14744)
Experiment: PRMT5 enzymatic inhibition assay
Type: biochemical

protein arginine methyltransferase 5 (PRMT5), sequence (O14744 2-637): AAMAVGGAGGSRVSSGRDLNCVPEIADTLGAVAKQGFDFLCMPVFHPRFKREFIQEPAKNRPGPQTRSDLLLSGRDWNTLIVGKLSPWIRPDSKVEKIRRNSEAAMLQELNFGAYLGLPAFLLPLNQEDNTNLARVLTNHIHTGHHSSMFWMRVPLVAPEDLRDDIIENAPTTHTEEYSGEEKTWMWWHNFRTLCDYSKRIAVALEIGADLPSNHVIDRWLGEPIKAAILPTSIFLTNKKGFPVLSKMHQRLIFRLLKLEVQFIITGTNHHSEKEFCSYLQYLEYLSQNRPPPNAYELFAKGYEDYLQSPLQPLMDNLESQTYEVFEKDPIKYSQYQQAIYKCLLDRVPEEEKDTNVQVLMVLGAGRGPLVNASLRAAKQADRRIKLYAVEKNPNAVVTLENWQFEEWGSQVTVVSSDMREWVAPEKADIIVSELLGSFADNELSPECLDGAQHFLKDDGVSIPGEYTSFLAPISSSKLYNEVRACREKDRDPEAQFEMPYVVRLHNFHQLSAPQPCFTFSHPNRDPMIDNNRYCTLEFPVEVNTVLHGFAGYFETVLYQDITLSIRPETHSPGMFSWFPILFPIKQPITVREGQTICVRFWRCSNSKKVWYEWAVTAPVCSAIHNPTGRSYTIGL

IC50: 17 nM
Substance: DW14800 [compound 39]
